Data from patent US20150025234A1, “GANGLIOSIDE COMPOSITIONS” (priority 2013, published 2015).
Entries after “also recorded” stand apart in the source; their conditions may differ.

Legend:
[1] = system: Adult Human Bone Marrow Cells; assay: CLQ treatment of adult human bone marrow cells, CTB-Alexa488 staining (Example 2); assay type: cell-based; details: 50 uM CLQ, 48 h, CTB-Alexa488, FIG. 2; listed as CLQ
[2] = system: PC12 (rat adrenal medulla tumor) cells; details: FEBS Lett. 580:6972-6976 (2006); cited from earlier work
[3] = system: HT22 (mouse hippocampal) cells; details: J. Neurochem. 119:839-847 (2011); cited from earlier work
[4] = system: human bone marrow-derived cells (HBM); assay type: cell-based
[5] = system: Parkinson's disease subjects; details: cited from earlier work

Row | Compound | accumulation of GM1 vs control [1] | accumulation [2] | GM1 levels [3] | up-regulation of GM1 expression vs control [4] | safety of long-term use ([5]; five-year study, J. Neurol. Sci. 292:45-51 (2010)) | effect on symptoms ([5]; short-term treatment, Neurology 50:1630-1636 (1998))
1 | CCN(CC)CCCC(C)Nc1ccnc2cc(Cl)ccc12 (stereo not drawn) [Chloroquine, chloroquine] | significantly higher accumulation of GM1; also recorded: abundant and intense compared to control conditions | induce accumulation | only moderately increased GM1 levels | approximately 8 fold |  | 
2 | GM1 |  |  |  |  | safe | significant symptom reduction
